According to patent publication EP0457908A1, “HYDROCHLORIDE 2,3,3a,4,5,6-HEXAHYDRO-8-CYCLOHEXYL-1H-PYRAZINO (3,2,1-j,k)CARBAZOL, METHOD OF OBTAINING IT AND A PHARMACEUTICAL PREPARATION OF ANTIDEPRESSIVE ACTION BASED ON IT” (priority 1989, dated 1991):
Read-outs that look alike come from different tables or passages of the source.

Key:
[1] = Central and peripheral anticholinergic effect (oxotremorine, arecoline, galantamine); assay type: in vivo; conditions: 10 and 25 mg/kg orally and 1.0, 2.0 and 5.0 mg/kg intravenously
Experimental: The compound according to the present invention was also tested for its central and peripheral anticholinergic effect.

white mice [2] = assay: Reserpine-induced blepharoptosis; assay type: in vivo; conditions: acute and chronical experiments
Experimental: The compound according to the present invention was tested for the ability to decrease depriming effects of reserpin (blepharoptosis, hypothermia and the like).
Tests were carried out on white mice of both sexes with a mass of 16-18 g.
The compound according to the present invention was orally administered in a single dose and repeatedly during 18 days.
The compound according to the present invention was administered in the single doses of 1, 2.5 and 5 mg/kg; repeatedly - in the doses of 0.5, 1.0, 2.5 and 5 mg/kg. The single-time administration and the last administration of the 18 days' course were effected 60 minutes prior to the intraperitoneal administration of reserpine (2.5 mg/kg). For a comparative assessment in these and other experiments pyrazidol and imipramine were also administered.

male white mice = assay: Hyperlocomotion induced by d,l-amphetamine; assay type: in vivo; conditions: 10-20 minutes after d,l-amphetamine 2.5 mg/kg intraperitoneally, distilled water 1,924.5±177.6
Experimental: The influence on hyperlocomotion induced by d,l-amphetamine was studied in experiments on male white mice with a mass of 20-22 g.
The locomotive activity of the mice was recorded 10-20 minutes after administration of d,l-amphetamine for 10 minutes.

rabbits = assay: Bioelectrical activity of the brain (electroencephalogram), rabbits; assay type: in vivo
From the text: (§1) The study of the effect on the bioelectrical activity of the brain was effected in acute experiments using 8 consious cats immobilized with diplacin with a mass of 2.5-3.4 kg under conditions of a controlled breathing and 25 rabbits with a mass of 2.6-3.1 kg with chronically implanted electrodes. Recorded on an electroencephalograph was an electroencephalogram of the sensomotor, parietal and visual regions of the cerebral cortex in cats, plus that of the reticular formation of the midbrain, dorsal hippocamp and amygdala in rabbits.

white rats = assay: Stereotypy induced by d,l-amphetamine; assay type: in vivo; conditions: distilled water = 100
Experimental: To evaluate the influence on stereotypy, the experiments were carried out on white rats of both sexes with a mass of 100-150 g. […] Stereotypy was assessed in points of from to 3 (after Janssen et al., 1967).

white mice [3] = assay: Porsolt's swimming behaviour test (duration of immobilization); assay type: in vivo; conditions: for Duration of immobilization, %: distilled water = 100
Experimental: The effect of the compound according to the present invention on the duration of immobilization in Porsolt's swimming behaviour test (Porsolt et al., 1977) in experiments on white mice of both sexes with a mass of 16-18 g. […] Sixty minutes after the last (or a single) administration of the preparations, the mice were placed into cylinders (10 cm diameter, 25 cm height) filled with water to 6 cm. The temperature of water was 21-22 °C. […] The number and duration of all stops in swimming (immobilization) over the observation period were recorded.

white mice [4] = assay: Enhancement of the effect of 5-hydroxytryptophane (head shaking); assay type: in vivo
Experimental: The compound according to the present invention was tasted for the exciting effect of 5-hydroxytryptophane (head shaking).
The compound according to the present invention in the doses of 1.0, 2.5, 5.0 and 10 mg/kg was administered orally 60 minutes prior to an intraperitoneal administration of 5-hydroxytryptophane (50 mg/kg).

[5] = system: normotensive rats of the Vistar line; assay: Effect on arterial pressure and heart beat rate; assay type: in vivo
Experimental: The compound according to the present invention was also tested for its effect on the cardiovascular system.

mice = assay: Acute toxicity, mice; assay type: in vivo
From the text: (§2) The acute and chronical toxicity of the compound according to the present invention was studied on mice, rats and rabbits.

cats = assay: Bioelectrical activity of the brain (electroencephalogram), cats; assay type: in vivo
From the text: as §1

rats = assay: Acute toxicity, rats; assay type: in vivo
From the text: as §2

[6] = system: normotensive female rats of the Vistar line; assay: Influence on the pressor effect of tyramine
Experimental: The experiments were conducted on conscious normotensive female rats of the Vistar line with a mass of 210-250 g placed under conditions of a free behaviour.

mice and rats = assay: Carcinogenic properties, chronic experiment; assay type: in vivo
[7] = Allergenic, embryotoxic and teratogenic effect; conditions: in vivo
mice, rats and rabbits = assay: Chronical toxicity, daily administration for 6 months; assay type: in vivo; conditions: daily for 6 months
From the text: as §2
Upon a daily administration of the compound according to the present invention for the period of 6 months no functional disturbances on the part of the inner organs of the animals were observed.

[8] = 5-days' administration, 1.0 mg/kg orally (dose from row order)
[9] = 5-days' administration, 2.5 mg/kg orally (dose from row order)
[10] = 5-days' administration, 5.0 mg/kg orally (dose from row order)
[11] = 18-days' administration, 2.5 mg/kg orally (dose from row order)
[12] = 18-days' administration, 5.0 mg/kg orally (dose from row order)
[13] = single administration, 1.0 mg/kg orally
[14] = single administration, 2.5 mg/kg orally
[15] = single administration, 5.0 mg/kg orally

Substance: 2,3,3a,4,5,6-hexahydro-8-cyclohexyl-1H-pyrazino-(3,2,1-j,k)-carbazole hydrochloride [Compound of the present invention]
- central and peripheral anticholinergic effect [1]: absence of the anticholinergic effect
- anti-reserpine effect, superior to pyrazidol (white mice [2]): more than 10 times
- Average value of locomotor activity of a group of 5 mice for 10 minutes (male white mice; 1.0 mg/kg oral): 3,482.6±445.5
- Average value of locomotor activity of a group of 5 mice for 10 minutes (male white mice; 2.5 mg/kg oral): 3,315.5±462.6
- Average value of locomotor activity of a group of 5 mice for 10 minutes (male white mice; 5.0 mg/kg oral): 4,885.0±537.2
- amplitude of sinusoidal regular waves (teta-activity) (rabbits; 2 mg/kg, rabbits, hippocampus): 150-200 µV
- frequency of sinusoidal regular waves (teta-activity) (rabbits; 2 mg/kg, rabbits, hippocampus): 4-6 oscillations per second
- frequency of regular low-amplitude rhythms (rabbits; 2 mg/kg, rabbits, visual, parietal regions and reticular formation of the midbrain): 5-7 oscillations per second
- time after administration at which the variations in the electroencephalogram appeared (rabbits; 2 mg/kg, species not given): 75-90 minutes
- time after administration at which the effect of activation was recorded (rabbits; 5 mg/kg, species not given): 45 to 60 min
- Stereotypy (tolal, for 4 measurements for 4 hours after hypodermal administration of d,l-amphetamine), % (white rats; oral dose 2.5 mg/kg): 145%
- Stereotypy (tolal, for 4 measurements for 4 hours after hypodermal administration of d,l-amphetamine), % (white rats; oral dose 5.0 mg/kg): 170%
- Stereotypy (tolal, for 4 measurements for 4 hours after hypodermal administration of d,l-amphetamine), % (white rats; oral dose 10.0 mg/kg): 225%
- Duration of immobilization, Seconds, M±m (white mice [3]; [8]): 102 ± 8.1 s
- Duration of immobilization, % (white mice [3]; [8]): 61%
- Duration of immobilization, Seconds, M±m (white mice [3]; [9]): 102 ± 6.1 s
- Duration of immobilization, % (white mice [3]; [9]): 61%
- Duration of immobilization, Seconds, M±m (white mice [3]; [10]): 88 ± 5.2 s
- Duration of immobilization, % (white mice [3]; [10]): 53%
- Duration of immobilization, % (white mice [3]; 18-days' administration, 1.0 mg/kg orally (dose from row order)): 58%
- Duration of immobilization, Seconds, M±m (white mice [3]; [11]): 96 ± 11.0 s
- Duration of immobilization, % (white mice [3]; [11]): 52%
- Duration of immobilization, Seconds, M±m (white mice [3]; [12]): 75 ± 9.8 s
- Duration of immobilization, % (white mice [3]; [12]): 41%
- active in doses lower than those of imipramine and pyrazidol (white mice [3]; Porsolt's test, mice, oral): 10 times
- Duration of immobilization, Seconds, M±m (white mice [3]; [13]): 145 ± 10.4 s
- Duration of immobilization, % (white mice [3]; [13]): 92%
- Duration of immobilization, Seconds, M±m (white mice [3]; [14]): 111 ± 9.9 s
- Duration of immobilization, % (white mice [3]; [14]): 69%
- Duration of immobilization, Seconds, M±m (white mice [3]; [15]): 105 ± 8.1 s
- Duration of immobilization, % (white mice [3]; [15]): 63%
- more active than pyrazidol in enhancing the convulsive activity of 5-hydroxytryptophane (white mice [4]; mice, ratio of ED₅₀): about 8 times
- ED₅₀, the dose at which head shaking were noticed in 50% of the animals (white mice [4]; orally, 60 minutes prior to 5-hydroxytryptophane 50 mg/kg intraperitoneally, read 25 minutes after): 2.5 (2.1-3.0) mg/kg
- heart beat rate ([5]; 10 mg/kg oral daily for 5 days): did not change the heart beat rate
- effect on the arterial pressure and heart beat rate ([5]; 1-100 mg/kg orally, free behaviour): no essential effect
- LD₅₀ (mice; oral administration, mice): 1,300 mg/kg
- LD₅₀ (mice; white mice): 1.3 g/kg
- frequency of the rhythm of oscillations of biopotentials (cats; 2 mg/kg, cats, all recorded regions of the brain cortex, control 8-10 per second): 20-25 per second
- amplitudes of oscillations of biopotentials (cats; 2 mg/kg, cats, all recorded regions of the brain cortex, control 90-120 µV): 25-40 µV
- changes in the bioelectric activity in the cortex and subcortical brain structures (cats; 0.5 and 1 mg/kg, intravenously and intraperitoneally, cats and rabbits not distinguished): did not bring about any changes
- LD₅₀ (rats): 2.5 g/kg
- LD₅₀ (rats; oral administration): 2,500 mg/kg
- enhanced effect of tyramine ([6]; 5 mg/kg orally for 5 days): no enhanced effect of tyramine was observed
- time after administration at which the enhanced effect of tyramine was noticed ([6]; 25 mg/kg orally): 6 to 18 h
- enhanced the pressor effect of tyramine ([6]; 25 mg/kg orally, tyramine 20 mg/kg orally): 2 times
- carcinogenic properties (mice and rats): did not reveal carcinogenic properties
- allergenic, embryotoxic or teratogenic effect [7]: did not exhibit an allergenic effect, an embryotoxic or teratogenic effect
- pathomorphological study (mice, rats and rabbits; 100 mg/kg): non-specific pathological changes in parenchymatous organs which were of a reversible character
- pathomorphological study (mice, rats and rabbits; 10 and 50 mg/kg): no pathological changes
